# Measurements taken from PubChem BioAssay AID504367 (Southern Research Specialized Biocontainment Screening …, 2011).
# Active and inactive are the calls of the source.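 Rule for the calls: active = fusion inhibition of 50% or more at any tested concentration; inactive = the rest.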
# Tested on: HeLa-CD4-LTR-beta-gal/HL2/3 cell fusion, beta-gal luminescence
# Test: CXCR4-tropic HIV-1 entry blockers, cell-cell fusion – HeLa-CD4-LTR-beta-gal/HL2/3 cells, beta-gal luminescence, dose response (AID 504367)
row,IC50,Structure (SMILES)
1,> 100 µM (inactive),Cc1c2c(=O)n(-c3nc4ccccc4s3)nc-2cc(O)n1Cc1ccncc1
2,> 100 µM (inactive),O=C(O)c1ccc(C[n+]2c(-c3ccccc3)csc2Nc2ccccc2)cc1
3,> 100 µM (inactive),Cc1c2c(=O)n(-c3nc4ccccc4s3)nc-2cc(O)n1CCc1cccs1
4,> 100 µM (inactive),CCOC(=O)C1=C(C)N=c2sc(=Cc3ccc(OCC(=O)O)cc3)c(=O)n2C1c1ccc(OC)cc1OC (stereo not drawn)
5,77.1 µM,CCOC(=O)C1=C(C)N=c2sc(=Cc3ccc(OCC(=O)O)cc3)c(=O)n2C1c1ccc(F)cc1 (stereo not drawn)
6,25.2 µM,O=C(O)CCCN1C(=O)/C(=C\c2ccc(-c3ccc(Cl)cc3)o2)SC1=S
7,67.7 µM,CS(=O)(=O)C1=NSC2=NC(=O)/C(=C\c3cccn3-c3ccc(Cl)cc3)C(=N)N21
8,> 100 µM (inactive),Cc1c2c(=O)n(-c3nc4ccccc4s3)nc-2cc(O)n1Cc1cccnc1
9,40 µM,Cc1c2c(=O)n(-c3nc4ccccc4s3)nc-2cc(O)n1CCC(C)C
10,21.4 µM,Cc1ccc(-n2cccc2/C=C2/C(=N)N3C(=NC2=O)SN=C3S(C)(=O)=O)cc1C
11,58.1 µM,CS(=O)(=O)C1=NSC2=NC(=O)/C(=C\c3cccn3-c3ccc(F)cc3)C(=N)N21
12,> 100 µM (inactive),Nc1sc2ccccc2[n+]1Cc1ccc(C(=O)O)cc1
13,48.4 µM,CC1=C(C(=O)OC(C)C)C(c2ccc(Cl)cc2)n2c(s/c(=C\c3ccc(OCC(=O)O)cc3)c2=O)=N1 (stereo not drawn)
14,43.6 µM,Cc1c2c(=O)n(-c3nc4ccccc4s3)nc-2cc(O)n1CCc1ccc(O)cc1
15,> 100 µM (inactive),CS(=O)(=O)C1=NSC2=NC(=O)/C(=C\c3cccn3-c3cccc(C(F)(F)F)c3)C(=N)N21
16,4.6 µM,Cc1ccc(-c2ccc(/C=C3\SC(=S)N(CCCC(=O)O)C3=O)o2)cc1
17,> 100 µM (inactive),CCOC(=O)C1=C(C)N=c2sc(=Cc3ccc(OCC(=O)O)cc3)c(=O)n2C1c1cc(OC)c(OC)c(OC)c1 (stereo not drawn)
18,27.7 µM,CCOC(=O)C1=C(C)N=c2s/c(=C\c3ccc(OCC(=O)O)cc3)c(=O)n2C1c1ccc(OC)c(OCC)c1 (stereo not drawn)
19,39.4 µM,O=C(O)c1ccc([C@@H]2Nc3ccc(S(=O)(=O)Nc4cccc5ccccc45)cc3[C@@H]3C=CC[C@@H]32)cc1
20,> 100 µM (inactive),O=C(O)CCCN1C(=O)/C(=C/c2ccc(-c3cccc(C(F)(F)F)c3)o2)SC1=S
21,> 100 µM (inactive),COc1ccc(-n2cccc2/C=C2/C(=N)N3C(=NC2=O)SN=C3S(C)(=O)=O)cc1Cl
22,> 100 µM (inactive),CS(=O)(=O)C1=NSC2=NC(=O)/C(=C\c3cccn3-c3cc(Cl)cc(Cl)c3)C(=N)N21
23,> 100 µM (inactive),CCOC(=O)C1=C(C)N=c2sc(=Cc3ccc(OCC(=O)O)cc3)c(=O)n2C1c1ccccc1OC (stereo not drawn)
24,42.2 µM,COc1ccccc1Cn1c(O)cc2nn(-c3nc4ccccc4s3)c(=O)c-2c1C
25,23.3 µM,CCOC(=O)C1=C(c2ccccc2)N=c2s/c(=C\c3ccc(OCC(=O)O)cc3)c(=O)n2C1c1cccc(OC)c1 (stereo not drawn)
26,60.4 µM,Cc1c2c(=O)n(-c3nc4ccccc4s3)nc-2cc(O)n1C1CC1
27,> 100 µM (inactive),O=C(O)CCCN1C(=O)/C(=C/c2cc3ccccc3o2)SC1=S

row,IC50,Structure (SMILES)
1,2.47 µM,CCc1ccc(-c2ccc(/C=C3\SC(=S)N(CCCC(=O)O)C3=O)o2)cc1
2,46 µM,CCc1ccc(-n2cccc2/C=C2/C(=N)N3C(=NC2=O)SN=C3S(C)(=O)=O)cc1
3,> 100 µM (inactive),COc1cccc(C2C(C(=O)Nc3ccccc3)=C(C)N=c3sc(=Cc4ccc(OCC(=O)O)cc4)c(=O)n32)c1 (stereo not drawn)
4,62.7 µM,CS(=O)(=O)C1=NSC2=NC(=O)/C(=C\c3cccn3-c3cccc(F)c3)C(=N)N21
5,31.8 µM,O=C(O)CCCN1C(=O)/C(=C\c2ccc(-c3cccc(Cl)c3)o2)SC1=S
6,44.5 µM,CS(=O)(=O)C1=NSC2=NC(=O)/C(=C\c3cccn3-c3ccc(Cl)c(Cl)c3)C(=N)N21
7,2.1 µM,O=C(O)CCCN1C(=O)/C(=C/c2ccc(-c3ccc(Cl)c(Cl)c3)o2)SC1=S
8,> 100 µM (inactive),O=C(O)CCC(C(=O)O)N1C(=O)/C(=C\c2ccco2)SC1=S (stereo not drawn)
9,99.9 µM,CCOc1ccc(-n2cccc2/C=C2/C(=N)N3C(=NC2=O)SN=C3S(C)(=O)=O)cc1
10,35.9 µM,COc1ccc(CCn2c(O)cc3nn(-c4nc5ccccc5s4)c(=O)c-3c2C)cc1
11,50 µM,CCOC(=O)C1=C(C)N=c2s/c(=C\c3ccc(OCC(=O)O)cc3)c(=O)n2C1c1ccc(Cl)cc1 (stereo not drawn)
12,55.3 µM,Cc1c2c(=O)n(-c3nc4ccccc4s3)nc-2cc(O)n1Cc1ccc(F)cc1
13,> 100 µM (inactive),CCOC(=O)C1=C(C)N=c2sc(=Cc3ccc(OCC(=O)O)cc3)c(=O)n2C1c1ccccc1 (stereo not drawn)
14,0.47 µM,O=C(O)CCCN1C(=O)/C(=C\c2ccc(-c3ccc(Br)cc3)o2)SC1=S
15,18.4 µM,COc1ccccc1NS(=O)(=O)c1ccc2c(c1)C1C=CCC1C(c1ccc(C(=O)O)cc1)N2 (stereo not drawn)
16,32.1 µM,CS(=O)(=O)C1=NSC2=NC(=O)/C(=C\c3cccn3-c3cccc(Cl)c3)C(=N)N21
17,1.66 µM,COc1ccc(-c2ccc(/C=C3\SC(=S)N(CCCC(=O)O)C3=O)o2)cc1
18,50.1 µM,Cc1c2c(=O)n(-c3nc4ccccc4s3)nc-2cc(O)n1Cc1cccs1
19,25.2 µM,CS(=O)(=O)C1=NSC2=NC(=O)/C(=C\c3cccn3-c3ccc(Br)cc3)C(=N)N21
20,49.2 µM,COc1ccc(Cn2c(O)cc3nn(-c4nc5ccccc5s4)c(=O)c-3c2C)cc1
21,> 100 µM (inactive),COc1cccc(-n2cccc2/C=C2/C(=N)N3C(=NC2=O)SN=C3S(C)(=O)=O)c1
22,3.86 µM,O=C(O)CCCN1C(=O)/C(=C\c2ccc(-c3ccc(F)cc3)o2)SC1=S
23,39.9 µM,Cc1ccc(-n2cccc2/C=C2/C(=N)N3C(=NC2=O)SN=C3S(C)(=O)=O)cc1
24,> 100 µM (inactive),O=C(O)c1ccc(C[n+]2c(-c3ccc([N+](=O)[O-])cc3)csc2Nc2ccccc2)cc1
25,29.5 µM,Cc1c2c(=O)n(-c3nc4ccccc4s3)nc-2cc(O)n1Cc1ccccc1Cl
26,36.8 µM,O=C(O)c1ccc(C2Nc3ccc(S(=O)(=O)Nc4cc(Cl)ccc4Cl)cc3C3C=CCC32)cc1 (stereo not drawn)
